Results on 5 molecules are retold here after US20060005464A1, “Alkyl ethanolamine and biocide combination for hydrocarbon based fuels” (priority 2004, published 2006).

Common to all, as to format: cell-based
Experiment [1] relates to Pseudomonas Aeruginosa (ATCC27853). Briefly: Microtiter plate growth of Pseudomonas Aeruginosa with amines and GROTAN. The note with it: for growth of Pseudomonas Aeruginosa (Table 1 entry): pH 8.5, 24 hours.
For experiment [2], the system named is Aureobasidium pullulans (ATCC 12536). Briefly: End-point optical density of Aureobasidium pullulans with MIT/CMIT plus alkanolamine. To be noted: SAB media pH 8.5. The protocol: The impact of N-alkylalkanolamines on the control of the bacterial species Aureobasidium pullulans (ATCC 12536), a bacteria common in water-oil systems, was evaluated by measuring optical absorbance of samples treated with various concentrations of N-alkyl alkanolamines. […] SAB media at pH 8.5 (Tris buffer) was employed. Table 8 summarizes measurement of end-point optical density after 24 hours and 48 hours: […]

Experiment [3] has as its system Mycobacterium smegmatis (ATCC # 19420). The experiment can be described thus: End-point optical density of Mycobacterium smegmatis with N-alkyl alkanolamines (590 nm, 72 h). To be noted: 590 nm, after 72 hours, pH 8.5, tetrazolium dye.
For experiment [4], the system named is Pseudomonas aeruginosa (ATCC 10145). Briefly: Maximum growth slope of Pseudomonas aeruginosa with Proxel DB20 (BIT) plus alkanolamine. The note with it: pH 8.5, TSB, 24 hour.
Experimental: A culture of Pseudomonas aeruginosa (ATCC 10145) at pH=8.5 in TSB (trypticase soy broth) media was prepared. The biocide Proxel DB20 (20% suspension of benzoisothiazolone (BIT) in water), as sold by Avecia, was added at varying concentrations in combination with 1000 ppm or 2000 ppm of the alkanolamines N-butylaminoethanol (BAE), 2-amino-2-methyl-1-propanol (AMP), dibutylaminoethanol (DBAE) or n-octylaminoethanol (OAE). Optical density measurements were taken every 15 minutes over a 24 hour time period (total of 96 data points). The maximum growth slope was calculated by taking the 10 contiguous data points that result in the highest growth slope (units of OD per time) over a 24 hour period. Those 10 data points were subjected to a least squares linear fit to calculate the maximum growth slope.
Experiment [5] deals with Mycobacterium marinum (ATCC # 19420). Briefly: End-point optical density and MIC, Mycobacterium marinum (660 nm, 72 h). The note with it: pH 8.5; for MIC (estimate of the concentration range in which the amine starts to inhibit growth): 72 hours; for end-point optical density: 660 nm, after 72 hours. The protocol:
(§1) The impact of N-alkylalkanolamines on the control of the bacterial species Mycobacterium smegmatis (ATCC # 19420), a bacteria common in water-oil systems, was evaluated by measuring optical absorbance of samples treated with various alkyl ethanolaminesis DCHA=Dicyclohexylamine, OAE=Octylaminoethanol, ODEA=Octyldiethanolamine. Bacterial concentration was monitored indirectly via optical absorbance at 660 nm. The values reported are end-point optical densities in milliOD units after 48 hours. The media consisted of a standardized solution of clear nutrient broth (Middlebrook 7H10 with OADC supplement), amine, buffer (Tris) and water. The pH was adjusted initially to 8.5 with Tris buffer. The first column in the Table gives the amine concentration in ppm. The final two columns give data for cells that also contained 2 grams per liter of boric acid. In all cases, the values are averages of at least three replicates. The final row of the Table gives an estimate of the concentration range in which the amine in question starts to inhibit the growth of this bacterial species.
The impact of the N-alkylalkanolamines of Example 6 on the control of the bacterial species Mycobacterium marinum (ATCC # 19420), bacteria common in water-oil systems, was evaluated as described above in Example 6. Bacterial concentration in the experimental media was monitored indirectly via optical absorbance at 660 nm. The values reported are end-point optical densities in milliOD units after 72 hours. The media consisted of a standardized solution of clear nutrient broth (Middlebrook 7H10 with OADC supplement), amine, buffer (Tris) and water. The pH was adjusted initially to 8.5 with Tris buffer. The first column in the Table gives the amine concentration in ppm. In all cases, the values are averages of at least three replicates. The final row of the Table gives an estimate of the concentration range in which the amine in question starts to inhibit the growth of this bacterial species.

In experiment [6] the test system is Mycobacterium smegmatis (ATCC # 19420). Briefly: End-point optical density and MIC, Mycobacterium smegmatis (660 nm, 48 h). To be noted: for MIC (estimate of the concentration range in which the amine starts to inhibit growth): 48 hours; for end-point optical density: 660 nm, after 48 hours. The protocol:
as §1

[7] abbreviates: amine 2000 ppm plus GROTAN 100 ppm.
The mark [8] stands for this setting: amine 2000 ppm plus GROTAN 250 ppm.
[9] abbreviates: amine 2000 ppm plus GROTAN 500 ppm.
Setting [10] is: amine 2000 ppm plus GROTAN 1000 ppm.
Where [11] appears, read: amine 2000 ppm plus GROTAN 2000 ppm.
[12] abbreviates: amine 4000 ppm plus GROTAN 100 ppm.
Where [13] appears, read: amine 4000 ppm plus GROTAN 250 ppm.
Where [14] appears, read: amine 4000 ppm plus GROTAN 500 ppm.
[15] abbreviates: amine 4000 ppm plus GROTAN 1000 ppm.
Setting [16] is: amine 4000 ppm plus GROTAN 2000 ppm.

On to `CCCCN(CCO)CCO` [BDEA, butyldiethanolamine], for which the “growth of Pseudomonas Aeruginosa (Table 1 entry)” value (shortened to “growth of Pseudomonas Aeruginosa”) is 0.52 in experiment [1] (setting [7]); 0.72 in experiment [1] (setting [8]); 0.79 in experiment [1] (setting [9]); 0.32 in experiment [1] (setting [10]); 0.33 in experiment [1] (setting [11]); 0.67 in experiment [1] (amine 2000 ppm, GROTAN 0 ppm). Also, the “growth of Pseudomonas Aeruginosa” value in experiment [1] (setting [12]) came out at 0.67; in experiment [1] (setting [13]), 0.51; in experiment [1] (setting [14]), 0.30; in experiment [1] (setting [15]) it was 0.28; in experiment [1] (setting [16]), 0.33; in experiment [1] (amine 4000 ppm, GROTAN 0 ppm) it was 0.45. Besides, the “enhancement in the biocidal effect of GROTAN” value in experiment [1] (conclusion from Table 1) is “provide an enhancement in the biocidal effect of GROTAN®”.
As to `CCCCN(CCO)CCCC` [DBAE, dibutylaminoethanol], the end-point optical density is recorded as 0.3 in experiment [2] (amine 1000 ppm plus 50 ppm MIT/CMIT, 24 hours); 0.4 in experiment [2] (amine 1000 ppm plus 50 ppm MIT/CMIT, 48 hours); 0.2 in experiment [2] (amine 2000 ppm plus 50 ppm MIT/CMIT, 24 hours); 0.2 in experiment [2] (amine 2000 ppm plus 50 ppm MIT/CMIT, 48 hours); 2000 milliOD in experiment [3] (amine 470 ppm); 2000 milliOD in experiment [3] (amine 940 ppm). Besides, the end-point optical density was determined as 2000 milliOD in experiment [3] (amine 1880 ppm), 1900 milliOD in experiment [3] (amine 3750 ppm) and 1200 milliOD in experiment [3] (amine 7500 ppm). Also, the maximum growth slope in experiment [4] (amine 1000 ppm plus BIT 150 ppm) is 0.221 OD per time; in experiment [4] (amine 1000 ppm plus BIT 250 ppm) it was 0.255 OD per time; in experiment [4] (amine 1000 ppm plus BIT 500 ppm), 0.143 OD per time; in experiment [4] (amine 1000 ppm, BIT 0 ppm) it was 0.228 OD per time; in experiment [4] (amine 2000 ppm plus BIT 150 ppm), 0.084 OD per time; in experiment [4] (amine 2000 ppm plus BIT 250 ppm) it was 0.104 OD per time. For the same molecule, the maximum growth slope in experiment [4] (amine 2000 ppm plus BIT 500 ppm) is 0.000 OD per time; in experiment [4] (amine 2000 ppm, BIT 0 ppm), 0.114 OD per time.
On to `C1CCC(NC2CCCCC2)CC1` [DCHA, Dicyclohexylamine, reference compound], for which the “MIC (estimate of the concentration range in which the amine starts to inhibit growth)” value in experiment [5] is recorded as over 4000 ppm; in experiment [6] (pH 8.5, no boric acid), 1500-2000 ppm; in experiment [6] (with 2 grams per liter of boric acid) it was 1000-2000 ppm. The end-point optical density in experiment [5] (amine 400 ppm) stood at 0.6 milliOD; in experiment [5] (amine 800 ppm), 0.6 milliOD; in experiment [5] (amine 1200 ppm), 0.5 milliOD; in experiment [5] (amine 2000 ppm) it was 0.4 milliOD; in experiment [5] (amine 4000 ppm), 0.4 milliOD; in experiment [6] (amine 500 ppm plus 2 grams per liter of boric acid) it was 1.125 milliOD. The end-point optical density was 1.02 milliOD in experiment [6] (amine 500 ppm, pH 8.5); 0.855 milliOD in experiment [6] (amine 1000 ppm plus 2 grams per liter of boric acid); 0.802 milliOD in experiment [6] (amine 1000 ppm, pH 8.5); 0.995 milliOD in experiment [6] (amine 1500 ppm, pH 8.5); 0.085 milliOD in experiment [6] (amine 2000 ppm plus 2 grams per liter of boric acid); 0.268 milliOD in experiment [6] (amine 2000 ppm, pH 8.5).
Take `CCCCCCCCN(CCO)CCO` [ODEA, Octyldiethanolamine]: the “MIC (estimate of the concentration range in which the amine starts to inhibit growth)” value in experiment [5] is listed as 1200-2000 ppm; in experiment [6] (pH 8.5, no boric acid) it was 500-1000 ppm. Moreover, the end-point optical density was 0.6 milliOD in experiment [5] (amine 400 ppm); 0.4 milliOD in experiment [5] (amine 800 ppm); 0.4 milliOD in experiment [5] (amine 1200 ppm); 0.1 milliOD in experiment [5] (amine 2000 ppm); 0 milliOD in experiment [5] (amine 4000 ppm); 0.847 milliOD in experiment [6] (amine 500 ppm, pH 8.5). The end-point optical density is on record as 0.117 milliOD in experiment [6] (amine 1000 ppm, pH 8.5); 0.260 milliOD in experiment [6] (amine 1500 ppm, pH 8.5); 0.225 milliOD in experiment [6] (amine 2000 ppm, pH 8.5).
Take `CC(C)(C)NCCO` [TBAE, tert-butylaminoethanol]: the “growth of Pseudomonas Aeruginosa” value in experiment [1] (setting [7]) is reported as 0.72; in experiment [1] (setting [8]) it was 0.69; in experiment [1] (setting [9]) it was 0.83; in experiment [1] (setting [10]) it was 0.30; in experiment [1] (setting [11]) it was 0.35; in experiment [1] (amine 2000 ppm, GROTAN 0 ppm), 0.67. Also, the “growth of Pseudomonas Aeruginosa” value in experiment [1] (setting [12]) stood at 0.58; in experiment [1] (setting [13]) it was 0.59; in experiment [1] (setting [14]), 0.34; in experiment [1] (setting [15]), 0.28; in experiment [1] (setting [16]) it was 0.36; in experiment [1] (amine 4000 ppm, GROTAN 0 ppm) it was 0.55.
